# Experimental data as given in patent publication US12257214B2, “Compositions and methods comprising deoxy-pentitols” (The Charlotte Mecklenburg Hospital Authority, priority 2021, dated 2025).
# Legend:
# Format in all cases: cell-based
# SR = assay: ATPlite cell IC50 screening, SR; details: Homo sapiens, Anaplastic large cell lymphoma, ATPlite luminescence
# Experimental: (§1) In brief, the cells were cultures in relevant medium and treated with a range of 9 doses of 2-deoxyribitol, from 10 mM, 5 mM, 2.5 mM, 1.25 mM, 0.62 mM, 0.31 mM, 0.08 mM, and 0.04 mM. Cells were diluted in the corresponding ATCC recommended medium and dispensed in a 384-well plate, depending on the cell line used, at a density of 100-6400 cells per well in 45 μl medium. For each used cell line the optimal cell density was used. The margins of the plate were filled with phosphate-buffered saline. Plated cells were incubated in a humidified atmosphere of 5% CO2 at 37° C. After 24 hours, 5 μl of compound dilution was added and plates were further incubated. At the end of experiment (t=end), 24 μl of ATPlite 1Step™ (PerkinElmer) solution was added to each well, and subsequently shaken for 2 minutes. After 10 minutes of incubation in the dark, the luminescence was recorded on an Envision multimode reader (PerkinElmer). IC50 was determined in comparison with the control samples. The cell lines tested and their corresponding disease model is indicated the left-most and middle columns, respectively. IC50 values are given in μM values in the right-most column. This screening was performed of a list of cancer cells to establish IC50 values for each of the cancer cell lines. This screening provides evidence for the potential of 2DR to treat many cancer types.
# PC-3 = assay: ATPlite cell IC50 screening, PC-3; details: Homo sapiens; PC-3, Prostate carcinoma; ATPlite luminescence
# Experimental: as §1
# [1] = tested on: hepatocarcinoma HEPG2 cells; assay: HEPG2 cell culture, growth and death (FIG. 6)
# Experimental: The cells grow into large sheets (Control; top left panel), but remain tightly packed with limited cytoplasm. Cells were treated with 5 mM (top middle panel), 10 mM (top right panel), 20 mM (bottom left panel), or 40 mM (bottom right panel) 2-deoxyribitol (Drug). A dose-dependent decrease in cell density and increase in volume of cytoplasm is observed with the drug treatment.
# 2-deoxyribitol was also found to be effective at inhibiting the growth of and inducing cell death in the hepatocarcinoma cell HEPG2. […] HEPG2 cells have a clonal growth pattern with tightly-packed cells growing out to fill the surrounding empty space. […] Small numbers of cell death were also detected in the remaining narrow areas where the size of the cells was relatively smaller than those of surrounding cells.
# MCF7 cells [2] = assay: Anchorage independent growth, tumor colonies in agar gel (FIG. 3); details: 20 days
# Source text: Stars indicate a significant difference as compared to the control (p<0.01, n=3).
# However, this effect was not related to the enhanced expression of glycosylation of α-DG.
# BxPC-3 = assay: ATPlite cell IC50 screening, BxPC-3; details: Homo sapiens; BxPC-3, Pancreatic ductal adenocarcinoma; ATPlite luminescence
# Experimental: as §1
# RL = assay: ATPlite cell IC50 screening, RL; details: Homo sapiens, Diffuse large B-cell lymphoma, ATPlite luminescence
# Experimental: as §1
# T24 = assay: ATPlite cell IC50 screening, T24; details: Homo sapiens, T-24; T24, Bladder carcinoma; ATPlite luminescence
# Experimental: as §1
# CCRF-CEM = assay: ATPlite cell IC50 screening, CCRF-CEM; details: Homo sapiens, Childhood T acute lymphoblastic leukemia, ATPlite luminescence
# Experimental: as §1
# JAR = assay: ATPlite cell IC50 screening, JAR; details: Gestational choriocarcinoma, ATPlite luminescence
# Experimental: as §1
# MCF7 cells [3] = assay: Mammosphere formation (FIG. 4)
# Experimental: Cells were also treated with Vitamin C (VitC) at a concentration of 50 μM for 5 days (5d) and then returned to normal medium (NM) for 6 days (d6), without (lower left panel) or with 2-deoxyribitol (Drug, lower right panel). The formation of cancer mammospheres, considered to be cancer stem cell-rich population, can be seen in culture without Drug treatment, and with Vitamin C treatment only. Drug treatment greatly reduces to eliminates the formation of cancer mammospheres.
# To examine mammosphere formation, MCF7 cells were grown for 11 days with or without 2-deoxyribitol (drug) treatment (FIG. 4, top panels). In addition, MCF7 cells were treated with Vitamin C at the concentration of 50 μM for 5 days and then returned to normal medium (“NM”) for 6 days (FIG. 4, lower panels).
# A-204 = assay: ATPlite cell IC50 screening, A-204; details: Homo sapiens, A204; A-204, Embryonal rhabdomyosarcoma; ATPlite luminescence
# Experimental: as §1
# C-33 A = assay: ATPlite cell IC50 screening, C-33 A; details: Homo sapiens, Cervical squamous cell carcinoma, ATPlite luminescence
# Experimental: as §1
# [4] = tested on: prostate cancer cell line LNCaP; assay: LNCaP cell culture, growth and death (FIG. 5, FIG. 10)
# Experimental: A dose dependent decrease in cell density was clearly detected with 2-deoxyribitol treatment, but not with ribitol treatment.
# Less than 50% of cells and 10% of cells were detected with the treatment of 10 mM and 50 mM 2-deoxyribitol, respectively.
# ES-2 = assay: ATPlite cell IC50 screening, ES-2; details: Homo sapiens; ES-2, Ovarian clear cell adenocarcinoma; ATPlite luminescence
# Experimental: as §1
# HT = assay: ATPlite cell IC50 screening, HT; details: Homo sapiens, Diffuse large B-cell lymphoma, ATPlite luminescence
# Experimental: as §1
# [5] = tested on: normal human breast epithelial cells MCF7-10F; assay: Normal breast epithelial cell culture (FIG. 8); details: 2-40 mM, 4 days
# Experimental: 2-deoxyribitol was given in ascending doses of 2 mM (top middle panel), 5 mM (top right panel), 10 mM (bottom left panel), 20 mM (bottom middle panel), and 40 mM (bottom right panel). No significant differences were observed between the control and drug-treated cells at any dose.
# (§2) In contrast, 2-deoxyribitol produced unnoticeable changes in cell culture of normal human myoblasts or differentiated myotubes (FIG. 7), indicating its low toxicity potential to normal cell populations. In this study, normal human myoblasts (HSKM cells) were treated with 2-deoxyribitol (Drug) for 3 days.
# DB = assay: ATPlite cell IC50 screening, DB; details: Homo sapiens, Diffuse large B-cell lymphoma, ATPlite luminescence
# Experimental: as §1
# [6] = tested on: normal human myoblasts (HSKM cells); assay: Normal human myoblast culture (FIG. 7); details: HSKM cells, 2, 10, 20 mM, 3 days
# Experimental: Three different doses were tested as labeled in the images: 2 mM (top right panel), 10 mM (bottom left panel), and 20 mM (bottom right panel) 2-deoxyribitol. No-drug control is shown in top left panel. Drug effect on growth of the cells is not clearly visible.
# as §2
# DLD-1 = assay: ATPlite cell IC50 screening, DLD-1; details: Homo sapiens; DLD-1, Colon adenocarcinoma; ATPlite luminescence
# Experimental: as §1
smiles,measurement,setting,value
OCC[C@H](O)[C@H](O)CO [2-deoxyribitol],IC50,SR,4.25 mM
same,IC50,PC-3,3.68 mM
same,effect on number of cells and cytoplasm,"[1]; HEPG2, 5-40 mM",decreased the number of cells with increasing amount of cytoplasm dose-dependently
same,cell size relative to control cells,"[1]; HEPG2, majority of cells, dose of 20 mM or higher",three or more times larger
same,cell colonies in agar culture,MCF7 cells [2]; 10 mM,absence of cell colony
same,anchorage independent growth (formation of tumor colonies within agar gel),MCF7 cells [2]; 10 mM and 20 mM,significantly inhibited
same,IC50,BxPC-3,7.81 mM
same,IC50,RL,3.4 mM
same,IC50,T24,> 10 mM
same,IC50,CCRF-CEM,5.97 mM
same,IC50,JAR,3.6 mM
same,number of mammospheres after Vitamin C pre-treatment,"MCF7 cells [3]; MCF7, Vitamin C 50 μM 5 days, then 6 day treatment with 2-deoxyribitol",decreased dramatically
same,formation of mammospheres,"MCF7 cells [3]; MCF7 grown 11 days, 5 mM",no spheres were seen
same,IC50,A-204,6.06 mM
same,IC50,C-33 A,7.6 mM
same,cells detected after treatment,"[4]; 10 mM, 4 days",Less than 50%
same,number of cancer cells / anticancer effect,"[4]; 10 mM, 7 days (FIG. 10)",markedly reduces the number of cancer cells
same,cells detected after treatment,"[4]; 50 mM, 4 days",< 10%
same,"effect on cell growth, death and cell density","[4]; 2-50 mM, 4 days",dose dependent inhibition in cell growth and death
same,IC50,ES-2,8.74 mM
same,IC50,HT,6.89 mM
same,growth inhibition or cell death of normal breast cells,[5],did not inhibit growth or cause cell death
same,IC50,DB,4.08 mM
same,cell density or myofiber formation versus control,[6],No difference in cell density or myofiber formation
same,IC50,DLD-1,4.53 mM
